Results from paper PMC3995681, “Structural, Kinetic and Proteomic Characterization of Acetyl Phosphate-Dependent Bacterial Protein Acetylation” (PLoS ONE, 2014).

How the values were obtained:
[1] = target: T1, GapA (glyceraldehyde-3-phosphate dehydrogenase) (Escherichia coli, UniProt P0A9B2); experiment: X-ray crystallography; settings: NAD+-binding site, part of the molecules in the asymmetric unit
T1 construct: full ORF, N-terminal His6 tag plus TDPALRA spacer (ASKA clone, pCA24N), expressed in E. coli BL21(DE3); tetramer
T1 sequence (P0A9B2 whole entry): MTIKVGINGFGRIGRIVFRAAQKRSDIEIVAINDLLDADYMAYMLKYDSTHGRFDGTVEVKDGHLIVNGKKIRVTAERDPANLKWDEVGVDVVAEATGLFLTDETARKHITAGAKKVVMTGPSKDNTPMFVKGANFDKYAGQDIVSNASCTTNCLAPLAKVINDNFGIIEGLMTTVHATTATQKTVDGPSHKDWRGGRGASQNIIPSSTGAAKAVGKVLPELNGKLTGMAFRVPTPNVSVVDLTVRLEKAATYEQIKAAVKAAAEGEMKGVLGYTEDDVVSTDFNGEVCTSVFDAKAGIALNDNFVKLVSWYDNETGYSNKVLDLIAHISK

[2] = target: T1, GapA (glyceraldehyde-3-phosphate dehydrogenase); experiment: X-ray crystallography, crystal soak ( […] sec); assay type: binding; settings: covalent; acetylation of K46, K249, K257, K116; pH 7.5
[3] = target: T2, LpdA (dihydrolipoyl dehydrogenase) (Escherichia coli, UniProt P0A9P0); experiment: in vitro acetylation, anti-acetyllysine Western blot and MS1 Filtering; assay type: biochemical; settings: covalent; non-enzymatic lysine acetylation, non-saturating; 5-20 mM acP, 10 mM MgCl2, pH 7.3, 37°C
T2 construct: full ORF, N-terminal His6 tag plus TDPALRA spacer (ASKA clone, pCA24N), expressed in E. coli BL21(DE3)
T2 sequence (P0A9P0 whole entry): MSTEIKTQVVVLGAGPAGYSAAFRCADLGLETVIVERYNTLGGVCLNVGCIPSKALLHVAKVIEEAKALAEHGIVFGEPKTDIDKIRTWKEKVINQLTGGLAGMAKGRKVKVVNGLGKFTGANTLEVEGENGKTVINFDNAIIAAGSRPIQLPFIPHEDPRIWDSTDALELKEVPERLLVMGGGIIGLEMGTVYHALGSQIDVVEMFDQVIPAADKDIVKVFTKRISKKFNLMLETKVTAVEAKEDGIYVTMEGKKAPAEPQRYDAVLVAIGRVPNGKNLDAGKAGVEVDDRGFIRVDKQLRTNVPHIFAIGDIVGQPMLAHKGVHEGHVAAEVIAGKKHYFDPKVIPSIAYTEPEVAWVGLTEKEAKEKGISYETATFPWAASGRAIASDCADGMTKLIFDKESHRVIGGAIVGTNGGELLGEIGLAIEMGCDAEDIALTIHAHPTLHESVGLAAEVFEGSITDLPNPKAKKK

[4] = target: T3, TpiA (triosephosphate isomerase) (Escherichia coli, UniProt P0A858); experiment: X-ray crystallography, crystal soak ( […] sec); assay type: binding; settings: pH 6.5; active site near K11; non-covalent (K11 not acetylated)
T3 construct: full ORF, N-terminal His6 tag plus TDPALRA spacer (ASKA clone, pCA24N), expressed in E. coli BL21(DE3)
T3 sequence (P0A858 whole entry): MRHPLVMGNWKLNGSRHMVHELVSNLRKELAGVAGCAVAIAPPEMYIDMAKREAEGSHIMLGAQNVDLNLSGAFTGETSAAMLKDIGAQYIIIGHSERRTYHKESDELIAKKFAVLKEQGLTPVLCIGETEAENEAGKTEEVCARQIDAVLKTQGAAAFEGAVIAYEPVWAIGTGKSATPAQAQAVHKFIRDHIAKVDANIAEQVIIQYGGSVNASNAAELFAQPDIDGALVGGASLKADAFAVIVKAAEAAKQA

RNAP sigma70 holoenzyme = target: T4, RNAP sigma70 holoenzyme (Escherichia coli, UniProt P00579+P0A7Z4+P0A8V2); experiment: in vitro acetylation, anti-acetyllysine Western blot and MS1 Filtering; assay type: biochemical; settings: covalent; acetylation of RpoA K297, RpoB K1065, RpoD K493 and K593; 10 mM acP, 30 min, 10 mM MgCl2
T4 construct: gene rpoA; with DNA-directed RNA polymerase subunit beta'; DNA-directed RNA polymerase subunit omega
T4 sequence (P0A7Z4 whole entry): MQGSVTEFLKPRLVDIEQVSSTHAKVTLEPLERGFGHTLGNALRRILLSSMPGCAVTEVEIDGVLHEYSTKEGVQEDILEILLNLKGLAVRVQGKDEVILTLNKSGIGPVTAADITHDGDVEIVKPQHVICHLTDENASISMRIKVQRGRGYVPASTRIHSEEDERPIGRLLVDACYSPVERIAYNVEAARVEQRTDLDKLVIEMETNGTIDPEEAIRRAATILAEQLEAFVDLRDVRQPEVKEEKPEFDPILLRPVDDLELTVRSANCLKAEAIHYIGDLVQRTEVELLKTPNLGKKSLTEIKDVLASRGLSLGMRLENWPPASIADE
T4 sequence (P0A8V2 whole entry): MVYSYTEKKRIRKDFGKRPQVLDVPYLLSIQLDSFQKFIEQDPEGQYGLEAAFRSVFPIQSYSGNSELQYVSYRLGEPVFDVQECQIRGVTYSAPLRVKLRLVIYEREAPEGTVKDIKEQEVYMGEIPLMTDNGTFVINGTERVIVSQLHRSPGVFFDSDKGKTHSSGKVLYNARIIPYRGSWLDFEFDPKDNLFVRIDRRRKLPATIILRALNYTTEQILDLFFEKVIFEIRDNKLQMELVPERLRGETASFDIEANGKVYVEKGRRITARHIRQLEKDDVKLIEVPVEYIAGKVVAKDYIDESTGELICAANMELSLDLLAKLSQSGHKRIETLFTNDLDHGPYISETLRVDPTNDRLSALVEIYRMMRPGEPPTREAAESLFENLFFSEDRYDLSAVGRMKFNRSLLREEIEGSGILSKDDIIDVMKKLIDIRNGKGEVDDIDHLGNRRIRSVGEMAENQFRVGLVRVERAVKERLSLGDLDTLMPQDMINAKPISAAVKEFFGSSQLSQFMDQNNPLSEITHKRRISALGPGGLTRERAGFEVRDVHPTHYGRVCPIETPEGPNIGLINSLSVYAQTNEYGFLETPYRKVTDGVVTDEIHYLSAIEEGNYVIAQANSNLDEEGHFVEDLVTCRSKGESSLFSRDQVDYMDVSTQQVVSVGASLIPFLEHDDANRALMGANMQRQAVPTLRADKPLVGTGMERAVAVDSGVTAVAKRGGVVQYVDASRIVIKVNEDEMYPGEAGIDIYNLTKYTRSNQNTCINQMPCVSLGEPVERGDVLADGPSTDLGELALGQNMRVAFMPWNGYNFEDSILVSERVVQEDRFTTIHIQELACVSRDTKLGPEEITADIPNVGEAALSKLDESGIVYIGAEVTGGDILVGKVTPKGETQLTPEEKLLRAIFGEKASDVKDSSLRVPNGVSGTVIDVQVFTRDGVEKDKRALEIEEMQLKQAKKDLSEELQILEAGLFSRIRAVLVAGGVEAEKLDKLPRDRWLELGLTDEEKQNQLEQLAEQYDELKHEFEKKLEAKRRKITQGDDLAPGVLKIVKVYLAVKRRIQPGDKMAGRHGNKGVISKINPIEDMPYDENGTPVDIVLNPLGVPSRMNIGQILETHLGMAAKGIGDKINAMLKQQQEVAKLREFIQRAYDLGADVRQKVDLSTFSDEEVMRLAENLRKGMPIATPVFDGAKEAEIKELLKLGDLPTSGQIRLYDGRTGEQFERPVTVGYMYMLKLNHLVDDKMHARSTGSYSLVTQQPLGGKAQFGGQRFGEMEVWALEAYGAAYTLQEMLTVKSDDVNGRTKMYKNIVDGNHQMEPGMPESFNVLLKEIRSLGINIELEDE
T4 sequence (P00579 whole entry): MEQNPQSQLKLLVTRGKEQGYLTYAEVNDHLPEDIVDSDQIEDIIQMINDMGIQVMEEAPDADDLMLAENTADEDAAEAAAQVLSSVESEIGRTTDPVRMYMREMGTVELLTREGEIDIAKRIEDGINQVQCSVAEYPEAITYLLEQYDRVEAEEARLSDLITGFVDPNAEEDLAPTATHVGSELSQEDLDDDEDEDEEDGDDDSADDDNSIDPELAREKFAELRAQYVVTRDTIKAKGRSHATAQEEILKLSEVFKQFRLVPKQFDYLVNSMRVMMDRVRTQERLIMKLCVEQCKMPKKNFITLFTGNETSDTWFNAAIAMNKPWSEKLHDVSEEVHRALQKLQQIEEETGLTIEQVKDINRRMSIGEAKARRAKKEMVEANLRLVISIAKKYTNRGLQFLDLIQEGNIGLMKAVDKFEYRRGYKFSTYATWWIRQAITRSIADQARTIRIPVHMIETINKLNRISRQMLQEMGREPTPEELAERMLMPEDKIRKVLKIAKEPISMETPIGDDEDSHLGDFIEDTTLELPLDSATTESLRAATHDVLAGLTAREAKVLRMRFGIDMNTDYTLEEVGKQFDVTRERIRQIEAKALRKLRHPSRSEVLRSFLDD
T4 sequence (P0A8T7 whole entry partner): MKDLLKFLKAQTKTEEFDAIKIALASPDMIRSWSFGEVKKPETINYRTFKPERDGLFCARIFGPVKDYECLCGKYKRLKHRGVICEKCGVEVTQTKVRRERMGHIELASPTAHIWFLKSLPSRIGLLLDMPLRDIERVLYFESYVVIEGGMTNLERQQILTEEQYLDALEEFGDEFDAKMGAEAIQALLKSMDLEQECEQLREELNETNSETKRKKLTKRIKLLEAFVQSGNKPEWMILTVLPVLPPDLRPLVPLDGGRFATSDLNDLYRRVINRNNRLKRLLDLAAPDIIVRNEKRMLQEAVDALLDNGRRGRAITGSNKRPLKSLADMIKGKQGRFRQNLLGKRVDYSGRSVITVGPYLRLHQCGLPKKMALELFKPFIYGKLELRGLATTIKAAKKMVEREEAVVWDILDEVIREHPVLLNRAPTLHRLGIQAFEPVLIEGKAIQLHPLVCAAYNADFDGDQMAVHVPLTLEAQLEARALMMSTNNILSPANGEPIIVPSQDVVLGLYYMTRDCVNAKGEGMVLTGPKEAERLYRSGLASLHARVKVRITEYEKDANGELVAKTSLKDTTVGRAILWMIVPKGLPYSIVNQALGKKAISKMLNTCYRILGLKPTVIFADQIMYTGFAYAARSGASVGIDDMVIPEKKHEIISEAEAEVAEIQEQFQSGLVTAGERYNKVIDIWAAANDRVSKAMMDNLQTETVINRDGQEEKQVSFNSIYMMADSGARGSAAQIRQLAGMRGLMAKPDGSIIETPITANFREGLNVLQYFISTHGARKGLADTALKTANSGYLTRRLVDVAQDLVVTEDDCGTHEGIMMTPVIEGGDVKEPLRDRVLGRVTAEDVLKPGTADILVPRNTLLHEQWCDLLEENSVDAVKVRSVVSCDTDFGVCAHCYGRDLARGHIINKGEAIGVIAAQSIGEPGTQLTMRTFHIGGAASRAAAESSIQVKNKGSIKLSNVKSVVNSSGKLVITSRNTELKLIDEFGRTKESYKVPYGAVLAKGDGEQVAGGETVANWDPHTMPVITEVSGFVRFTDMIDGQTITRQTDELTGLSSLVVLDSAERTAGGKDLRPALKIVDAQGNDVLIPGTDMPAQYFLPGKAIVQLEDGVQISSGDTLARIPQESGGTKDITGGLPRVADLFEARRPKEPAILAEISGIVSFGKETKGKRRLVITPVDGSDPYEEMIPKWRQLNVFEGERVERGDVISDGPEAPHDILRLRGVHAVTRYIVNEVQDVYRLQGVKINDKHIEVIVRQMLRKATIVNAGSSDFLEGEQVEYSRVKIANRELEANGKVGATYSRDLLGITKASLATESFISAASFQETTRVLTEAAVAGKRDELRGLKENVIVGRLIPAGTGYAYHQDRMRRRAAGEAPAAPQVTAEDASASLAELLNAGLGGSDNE
T4 sequence (P0A800 2-91 partner): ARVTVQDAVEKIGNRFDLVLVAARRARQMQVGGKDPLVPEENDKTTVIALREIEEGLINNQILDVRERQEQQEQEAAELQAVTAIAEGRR

SMILES: NC(=O)c1ccc[n+]([C@@H]2O[C@H](COP(=O)(O)OP(=O)(O)OC[C@H]3O[C@@H](n4cnc5c(N)ncnc54)[C@H](O)[C@@H]3O)[C@@H](O)[C@H]2O)c1 [NAD^+]
- X-ray crystallography [1]: had either NAD^+ or pyrophosphate bound in the NAD^+-binding site

SMILES: CC(=O)OP(=O)(O)O [acP]
- X-ray crystallography, crystal soak (<30 sec) [2]: acP-dependent acetylation had already occurred on four residues (i.e., K46, K249, K257, and K116)
- in vitro acetylation, anti-acetyllysine Western blot and MS1 Filtering [3]: when incubated with acP, purified LpdA became acetylated in a dose- and time-dependent manner
- X-ray crystallography, crystal soak (<30 sec) [4]: The structures showed that acP bound near K11, where the substrate DHAP is seen to bind
- in vitro acetylation, anti-acetyllysine Western blot and MS1 Filtering (RNAP sigma70 holoenzyme): significant relative increases in acetylation were observed for K297 of RpoA, for K1065 of RpoB

SMILES: O=P(O)(O)OP(=O)(O)O [pyrophosphate]
- X-ray crystallography ([1]; source of ligand not told): had either NAD^+ or pyrophosphate bound in the NAD^+-binding site
